The values that follow come from patent US8470786B2, “Pyrroloquinolinyl-pyrrolidine-2,5-dione compositions and methods for preparing and using same” (ArQule, Inc., priority 2010, dated 2013).

Structures are written as SMILES.

For data set [1], the target named is c-Met (Homo sapiens, UniProt P08581). As to the kind of experiment: c-Met autophosphorylation inhibition assay (biochemical). As to conditions: method per J. Biol. Chem. 286(23), 20666-20676. On the procedure: c-Met Autophosphorylation Inhibition assay was carried out according to Journal of Biological Chemistry 286(23), 20666-20676 (Jun. 10, 2010).
c-Met, sequence (P08581 25-1390): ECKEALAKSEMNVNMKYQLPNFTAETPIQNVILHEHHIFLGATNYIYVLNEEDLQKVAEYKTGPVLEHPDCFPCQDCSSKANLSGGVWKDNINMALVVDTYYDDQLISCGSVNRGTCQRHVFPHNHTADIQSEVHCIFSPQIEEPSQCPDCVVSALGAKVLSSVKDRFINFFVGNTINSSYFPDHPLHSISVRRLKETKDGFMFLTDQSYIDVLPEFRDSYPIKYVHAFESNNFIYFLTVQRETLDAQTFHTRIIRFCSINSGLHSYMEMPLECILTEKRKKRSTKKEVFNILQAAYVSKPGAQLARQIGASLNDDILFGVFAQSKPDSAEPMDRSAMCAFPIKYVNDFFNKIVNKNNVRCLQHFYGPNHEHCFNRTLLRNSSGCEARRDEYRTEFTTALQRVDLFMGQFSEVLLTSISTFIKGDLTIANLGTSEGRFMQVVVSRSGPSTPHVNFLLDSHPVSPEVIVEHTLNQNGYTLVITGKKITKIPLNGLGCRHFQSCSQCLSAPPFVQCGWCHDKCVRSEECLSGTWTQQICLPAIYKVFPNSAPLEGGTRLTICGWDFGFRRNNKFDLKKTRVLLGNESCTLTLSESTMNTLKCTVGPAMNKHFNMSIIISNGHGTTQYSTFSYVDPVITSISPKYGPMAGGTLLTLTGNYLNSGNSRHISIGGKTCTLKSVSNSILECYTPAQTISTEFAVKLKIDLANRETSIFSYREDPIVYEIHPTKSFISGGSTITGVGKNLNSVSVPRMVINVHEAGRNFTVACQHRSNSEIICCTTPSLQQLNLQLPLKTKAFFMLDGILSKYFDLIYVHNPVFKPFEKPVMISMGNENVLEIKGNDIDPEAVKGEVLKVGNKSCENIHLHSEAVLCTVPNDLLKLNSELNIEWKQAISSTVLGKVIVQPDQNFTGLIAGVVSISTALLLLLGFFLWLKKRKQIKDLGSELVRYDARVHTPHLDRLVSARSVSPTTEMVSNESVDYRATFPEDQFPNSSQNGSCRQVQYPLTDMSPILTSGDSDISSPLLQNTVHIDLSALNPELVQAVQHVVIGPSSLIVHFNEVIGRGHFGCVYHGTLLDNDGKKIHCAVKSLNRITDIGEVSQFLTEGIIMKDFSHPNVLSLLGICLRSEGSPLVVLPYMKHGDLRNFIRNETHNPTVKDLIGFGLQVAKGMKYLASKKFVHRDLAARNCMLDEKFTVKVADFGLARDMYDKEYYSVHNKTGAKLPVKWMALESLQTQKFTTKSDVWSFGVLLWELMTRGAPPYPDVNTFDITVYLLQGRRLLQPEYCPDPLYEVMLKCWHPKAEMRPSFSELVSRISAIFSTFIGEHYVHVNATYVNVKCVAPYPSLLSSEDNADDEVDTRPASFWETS
Data set [2] relates to HT29. As to the kind of experiment: Cell proliferation analysis (MTS assay). It is filed as cell-based. As to conditions: Homo sapiens, HT-29, HT29 cells, treated for 72 hours, read-out: Antiproliferative activity (HT29 MTS GI50). On the procedure: Cell survival was determined by the MTS assay. Briefly, cells were plated in a 96-well plate at 2,000-10,000 cells per well, cultured for 24 hours in complete growth medium, and then treated with various drugs and drug combinations for 72 hours. MTS was added and incubated for 4 hour, followed by assessment of cell viability using the microplate reader at 570 nm. Data were normalized to untreated controls and analyzed.
(Tetrazolium dyes change colour on reduction, which living cells bring about.)

As to `O=C1NC(=O)[C@@H](c2cn3c4c(cccc24)[C@@H](O)CC3)[C@@H]1c1c[nH]c2ccccc12` [Compound 10, (3R,4R)-3-((S)-6-hydroxy-5,6-dihydro-4H-pyrrolo[3,2,1-ij]quinolin-1-yl)-4-(1H-indol-3-yl)pyrrolidine-2,5-dione], in data set [1], the IC50 (as a rule, the concentration that gives 50% inhibition) turned out to be 2 ± 0.21 µM. Further, the GI50 (commonly the concentration at which growth is held to half of that of the control) in data set [2] came out at 1.5 ± 0.21 µM.

The molecule `O=C1NC(=O)[C@H](c2cn3c4c(cccc24)[C@@H](O)CC3)[C@H]1c1c[nH]c2ccccc12` [Compound 13, (3S,4S)-3-((S)-6-hydroxy-5,6-dihydro-4H-pyrrolo[3,2,1-ij]quinolin-1-yl)-4-(1H-indol-3-yl)pyrrolidine-2,5-dione] registered a half-maximal inhibitory concentration (IC50) in data set [1] above 30 µM. Moreover, the GI50 in data set [2] is 75 ± 33 µM.

`O=C1NC(=O)[C@@H](c2cn3c4c(cccc24)[C@H](O)CC3)[C@@H]1c1c[nH]c2ccccc12` [Compound 11, (3R,4R)-3-((R)-6-hydroxy-5,6-dihydro-4H-pyrrolo[3,2,1-ij]quinolin-1-yl)-4-(1H-indol-3-yl)pyrrolidine-2,5-dione]: inhibition in data set [1] was half-maximal at 2.6 ± 0.07 µM (IC50). Besides, the 50% growth inhibitory concentration (GI50) in data set [2] is 3.7 ± 0.42 µM.

As for `O=C1NC(=O)[C@@H](c2cn3c4c(cccc24)C(O)CC3)[C@@H]1c1c[nH]c2ccccc12` (mixture of isomers) [Compound 3, (rac)-trans-3-(6-hydroxy-5,6-dihydro-4H-pyrrolo[3,2,1-ij]quinolin-1-yl)-4-(1H-indol-3-yl)pyrrolidine-2,5-dione], the melting point (commonly the temperature, or range, at which the solid turns liquid) lay in the range of 153 to 155 °C.

For `O=C1NC(=O)[C@@H](c2cn3c4c(cccc24)CCC3)[C@@H]1c1c[nH]c2cc(O)ccc12` (racemic) [Compound 1, (rac)-trans-3-(5,6-dihydro-4H-pyrrolo[3,2,1-ij]quinolin-1-yl)-4-(6-hydroxy-1H-indol-3-yl)pyrrolidine-2,5-dione], the melting point lay in the range of 167 to 170 °C.

Molecule `O=C1NC(=O)[C@@H](c2cn3c4c(cccc24)CCC3=O)[C@@H]1c1c[nH]c2ccccc12` (racemic) [Compound 9, (3R,4R)-3-(1H-indol-3-yl)-4-(4-oxo-5,6-dihydro-4H-pyrrolo[3,2,1-ij]quinolin-1-yl)pyrrolidine-2,5-dione] came in with an IC50 in data set [1] of 1 µM. The GI50 in data set [2] was found to be 3.1 ± 0.24 µM.

`O=C1NC(=O)[C@H](c2cn3c4c(cccc24)[C@H](O)CC3)[C@H]1c1c[nH]c2ccccc12` [Compound 12, (3S,4S)-3-((R)-6-hydroxy-5,6-dihydro-4H-pyrrolo[3,2,1-ij]quinolin-1-yl)-4-(1H-indol-3-yl)pyrrolidine-2,5-dione]: in data set [1], the IC50 was above 30 µM. Further, the GI50 in data set [2] was found to be 31 ± 7.1 µM.

In data set [1], `O=C1CCn2cc([C@@H]3C(=O)NC(=O)[C@H]3c3c[nH]c4ccccc34)c3cccc1c32` (racemic) [Compound 8, (3R,4R)-3-(1H-indol-3-yl)-4-(6-oxo-5,6-dihydro-4H-pyrrolo[3,2,1-ij]quinolin-1-yl)pyrrolidine-2,5-dione] yielded an IC50 of 1.6 ± 0.25 µM. In addition, the GI50 in data set [2] was 0.68 ± 0.05 µM.
